Data: US9346811B2, “6,7-dihydro-pyrazolo[1,5-a]pyrazin-4-ylamine derivatives useful as inhibitors of beta-secretase (BACE)” (JANSSEN PHARMACEUTICA NV, priority 2011, dated 2016)
Counter-ions that a name gives are not always drawn. Like-named read-outs stand apart in the source and are kept apart here.

How the values were obtained:
[1] = molecular target: recombinant BACE1 protein (Homo sapiens, UniProt P56817); assay: Biochemical FRET based assay; settings: recombinant BACE1 1 μg/ml, 120 min, pH 5.0; for IC50: read-out: Biochemical FRET based assay pIC50 (converted)
Chain of recombinant BACE1 protein (P56817 46-501): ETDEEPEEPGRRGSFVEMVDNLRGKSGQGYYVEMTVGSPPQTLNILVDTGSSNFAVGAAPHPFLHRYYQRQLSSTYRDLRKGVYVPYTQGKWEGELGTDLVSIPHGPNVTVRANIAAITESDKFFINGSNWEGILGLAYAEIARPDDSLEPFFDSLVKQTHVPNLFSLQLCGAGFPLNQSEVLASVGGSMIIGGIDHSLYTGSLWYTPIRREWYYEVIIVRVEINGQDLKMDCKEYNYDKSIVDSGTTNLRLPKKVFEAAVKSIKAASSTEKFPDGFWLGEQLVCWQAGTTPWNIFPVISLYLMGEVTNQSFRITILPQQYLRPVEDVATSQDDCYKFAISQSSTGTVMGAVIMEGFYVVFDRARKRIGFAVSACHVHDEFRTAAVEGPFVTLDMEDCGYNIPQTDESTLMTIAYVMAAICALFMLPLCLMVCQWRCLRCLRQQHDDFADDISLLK
From the text: Biochemical FRET Based Assay
This assay is a Fluorescence Resonance Energy Transfer Assay (FRET) based assay. The substrate for this assay is an APP derived 13 amino acids peptide that contains the ‘Swedish’ Lys-Met/Asn-Leu mutation of the amyloid precursor protein (APP) β-secretase cleavage site. This substrate also contains two fluorophores: (7-methoxycoumarin-4-yl)acetic acid (Mca) is a fluorescent donor with excitation wavelength at 320 nm and emission at 405 nm and 2,4-Dinitrophenyl (Dnp) is a proprietary quencher acceptor. […] Upon cleavage by BACE1, the fluorophore Mca is separated from the quenching group Dnp, restoring the full fluorescence yield of the donor. The increase in fluorescence is linearly related to the rate of proteolysis (Koike H et al. J. Biochem. 1999, 126, 235-242). Briefly in a 384-well format recombinant BACE1 protein in a final concentration of 1 μg/ml is incubated for 120 min at room temperature with 10 μm substrate in incubation buffer (40 mM Citrate buffer pH 5.0, 0.04% PEG, 4% DMSO) in the absence or presence of compound. Next the amount of proteolysis is directly measured by fluorescence measurement at T=0 and T=120 (excitation at 320 nm and emission at 405 nm).

[2] = system: Aβ42 produced and secreted into the medium of human neuroblastoma SKNBE2 cells; assay: Cellular αlisa assay in SKNBE2 cells, Aβ42; assay type: cell-based; settings: for IC50: Homo sapiens, SKNBE2, 18 h, read-out: Cellular αlisa assay in SKNBE2 cells Aβ42 pIC50 (converted)
Description: (§1) Cellular αlisa Assay in SKNBE2 Cells
(§2) In two αlisa assays the levels of Aβtotal and Aβ42 produced and secreted into the medium of human neuroblastoma SKNBE2 cells are quantified. The assay is based on the human neuroblastoma SKNBE2 expressing the wild type Amyloid Precursor Protein (hAPP695). The compounds are diluted and added to these cells, incubated for 18 hours and then measurements of Aβ42 and Aβtotal are taken. Aβtotal and Aβ42 are measured by sandwich αlisa. αlisa is a sandwich assay using biotinylated antibody AbN/25 attached to streptavidin coated beads and antibody Ab4G8 or cAb42/26 conjugated acceptor beads for the detection of Aβtotal and Aβ42 respectively. In the presence of Aβtotal or Aβ42, the beads come into close proximity. The excitation of the Donor beads provokes the release of singlet oxygen molecules that triggers a cascade of energy transfer in the Acceptor beads, resulting in light emission. Light emission is measured after 1 hour incubation (excitation at […] and emission at 615 nm).
(§3) A best-fit curve is fitted by a minimum sum of squares method to the plot of % Controlmin versus compound concentration.

[3] = system: Aβtotal produced and secreted into the medium of human neuroblastoma SKNBE2 cells; assay: Cellular αlisa assay in SKNBE2 cells, Aβtotal; assay type: cell-based; settings: for IC50: Homo sapiens, SKNBE2, 18 h, read-out: Cellular αlisa assay in SKNBE2 cells Aβtotal pIC50 (converted)
Description: as §1, §2, §3

[4] = SKNBE2 cells expressing hAPP695, 18 hours incubation

Compound	IC50 [1] [nM]	Cellular αlisa assay in SKNBE2 cells Aβ42 pIC50 [2, 4]	Cellular αlisa assay in SKNBE2 cells Aβtotal pIC50 [3, 4]	Biochemical FRET based assay pIC50 [1]	IC50 [2, 4] [nM]	IC50 [3, 4] [nM]	IC50 [2] [nM]	IC50 [3] [nM]
COc1cnc(C(=O)Nc2ccc(F)c(C3(C(F)F)Cn4nccc4C(N)=N3)c2)cn1 (single isomer, unassigned) [Compound 18, (R*)-5-methoxy-pyrazine-2-carboxylic acid [3-(4-amino-6-difluoromethyl-6,7-dihydro-pyrazolo[1,5-a]pyrazin-6-yl)-4-fluoro-phenyl]-amide]	22.4	7.52	7.54	–	–	–	–	–
Cc1nc(C(=O)Nc2ccc(F)c(C3(C)Cn4nc(C#N)cc4C(N)=N3)c2)co1 (stereo not drawn) [Compound 43]	–	8.72	8.70	7.53	–	–	–	–
CC1(c2cccc(NC(=O)c3ncc(Cl)cc3Cl)c2)Cn2nccc2C(N)=N1 (single isomer, unassigned) [Compound 4, (R*)-3,5-dichloro-pyridine-2-carboxylic acid [3-(4-amino-6-methyl-6,7-dihydro-pyrazolo[1,5-a]pyrazin-6-yl)-phenyl]-amide]	21400	5.84	5.84	–	–	–	–	–
COc1cnc(C(=O)Nc2cccc(C3(C)Cn4nc(C(F)(F)F)cc4C(N)=N3)c2)cn1 (racemic) [Compound 30]	–	7.43	7.45	6.77	–	–	–	–
Cc1nc(C(=O)Nc2ccc(F)c(C3(C)Cn4ncc(F)c4C(N)=N3)c2)c(C(F)(F)F)o1 (stereo not drawn) [Compound 35]	–	7.33	7.30	6.91	–	–	–	–
CC1(c2cccc(NC(=O)c3ncc(Cl)cc3Cl)c2)Cn2nccc2C(N)=N1 (single isomer, unassigned) [Compound 5, (S*)-3,5-dichloro-pyridine-2-carboxylic acid [3-(4-amino-6-methyl-6,7-dihydro-pyrazolo[1,5-a]pyrazin-6-yl)-phenyl]-amide]	37.2	8.59	8.55	–	–	–	–	–
COc1cnc(C(=O)Nc2ccc(F)c(C3(C(F)F)Cn4nccc4C(N)=N3)c2)cn1 (single isomer, unassigned) [Compound 19, (S*)-5-methoxy-pyrazine-2-carboxylic acid [3-(4-amino-6-difluoromethyl-6,7-dihydro-pyrazolo[1,5-a]pyrazin-6-yl)-4-fluoro-phenyl]-amide]	9770	5.28	5.13	–	–	–	–	–
COc1cnc(C(=O)Nc2ccc(F)c(C3(C(F)F)Cn4nccc4C(N)=N3)c2)cn1 (racemic) [Compound 17, rac-5-methoxy-pyrazine-2-carboxylic acid [3-(4-amino-6-difluoromethyl-6,7-dihydro-pyrazolo[1,5-a]pyrazin-6-yl)-4-fluoro-phenyl]-amide]	57.5	–	–	–	39.8	33.1	–	–
CC1(c2cc(NC(=O)c3ccn(C(F)F)n3)ccc2F)Cn2nc(C(F)F)cc2C(N)=N1 (stereo not drawn) [Compound 40]	–	8.42	8.37	7.28	–	–	–	–
NC1=NC(c2cc(NC(=O)c3ccc(F)cn3)ccc2F)(C(F)F)Cn2nccc21 (single isomer, unassigned) [Compound 22, (R*)-5-fluoro-pyridine-2-carboxylic acid [3-(4-amino-6-difluoromethyl-6,7-dihydro-pyrazolo[1,5-a]pyrazin-6-yl)-4-fluoro-phenyl]-amide]	25.7	7.17	7.21	–	–	–	–	–
COc1cnc(C(=O)Nc2cccc(C3(C)Cn4nc(C(F)(F)F)cc4C(N)=N3)c2)cn1 (single isomer, unassigned) [Compound 31]	–	5.58	5.61	4.97	–	–	–	–
NC1=NC(c2cc(NC(=O)c3ccc(F)cn3)ccc2F)(C(F)F)Cn2nccc21 (single isomer, unassigned) [Compound 21, (S*)-5-fluoro-pyridine-2-carboxylic acid [3-(4-amino-6-difluoromethyl-6,7-dihydro-pyrazolo[1,5-a]pyrazin-6-yl)-4-fluoro-phenyl]-amide]	> 30200	<5	<5	–	–	–	–	–
Cc1nc(C(=O)Nc2ccc(F)c(C3(C)Cn4ncc(F)c4C(N)=N3)c2)co1 (stereo not drawn) [Compound 34]	–	7.83	7.78	7.23	–	–	–	–
Cc1nn2c(c1F)C(N)=NC(C)(c1cc(NC(=O)c3ccc(F)cn3)ccc1F)C2 (racemic) [Compound 41]	–	7.69	7.67	6.93	–	–	–	–
C[C@@]1(c2cccc(-c3cncc(Cl)c3)c2)Cn2nccc2C(N)=N1 [Compound 1, (R)-6-[3-(5-chloro-pyridin-3-yl)-phenyl]-6-methyl-6,7-dihydro-pyrazolo[1,5-a]pyrazin-4-ylamine trifluoroacetate salt]	525	–	–	–	–	–	93.3	100
COc1cnc(C(=O)Nc2ccc(F)c(C3(C)Cn4ncc(Cl)c4C(N)=N3)c2)cn1 (stereo not drawn) [Compound 37]	–	6.03	6.07	5.86	–	–	–	–
CC1(c2cc(NC(=O)c3ncc(Cl)cc3Cl)ccc2F)Cn2nccc2C(N)=N1 (single isomer, unassigned) [Compound 15, (R*)-3,5-dichloro-pyridine-2-carboxylic acid [3-(4-amino-6-methyl-6,7-dihydro-pyrazolo[1,5-a]pyrazin-6-yl)-4-fluoro-phenyl]-amide]	18.6	9.33	9.37	–	–	–	–	–
CC1(c2cccc(NC(=O)c3ccc(C#N)cn3)c2)Cn2nccc2C(N)=N1 (racemic) [Compound 6, rac-5-cyano-pyridine-2-carboxylic acid [3-(4-amino-6-methyl-6,7-dihydro-pyrazolo[1,5-a]pyrazin-6-yl)-phenyl]-amide]	–	–	–	–	5.75	5.13	–	–
Cc1nn2c(c1F)C(N)=NC(C)(c1cc(NC(=O)c3ccn(C(F)F)n3)ccc1F)C2 (stereo not drawn) [Compound 42]	–	8.02	7.99	7.12	–	–	–	–
C[C@@]1(c2cc(NC(=O)c3cnn(C(F)F)c3)ccc2F)Cn2nc(C#N)cc2C(N)=N1 [Compound 25, (R)-1-difluoromethyl-1H-pyrazole-4-carboxylic acid [3-(4-amino-2-cyano-6-methyl-6,7-dihydro-pyrazolo[1,5-a]pyrazin-6-yl)-4-fluoro-phenyl]-amide]	–	–	–	–	1.32	1.35	–	–
CC1(c2cc(NC(=O)c3ccc(Cl)cn3)ccc2F)Cn2nc(C(F)F)cc2C(N)=N1 (stereo not drawn) [Compound 39]	–	8.61	8.59	7.39	–	–	–	–
NC1=NC(c2cc(NC(=O)c3ccc(F)cn3)ccc2F)(C(F)F)Cn2nccc21 (racemic) [Compound 20, rac-5-fluoro-pyridine-2-carboxylic acid [3-(4-amino-6-difluoromethyl-6,7-dihydro-pyrazolo[1,5-a]pyrazin-6-yl)-4-fluoro-phenyl]-amide]	66.1	–	–	–	85.1	66.1	–	–
CC1(c2cccc(NC(=O)c3ccc(C#N)cn3)c2)Cn2nccc2C(N)=N1 (single isomer, unassigned) [Compound 8, (S*)-5-cyano-pyridine-2-carboxylic acid [3-(4-amino-6-methyl-6,7-dihydro-pyrazolo[1,5-a]pyrazin-6-yl)-phenyl]-amide]	–	6.13	6.13	–	–	–	–	–
